{"source": "patent US20030109537A1", "about": "“Methods and materials for treating bone conditions” (priority 2001, published 2003)", "key": {"[1]": {"system": "osteoblasts and peritrabecular fibroblasts", "experiment": "3H-thymidine autoradiography", "format": "in vivo, rat", "conditions": "continuous PTH 1 week with continuous 3H-thymidine infusion, rats", "protocol": "^3H-thymidine autoradiography was performed to determine the role of cell proliferation in contributing to the increases in osteoblasts and fibroblasts following continuous administration of PTH. ^3H-thymidine was infused continuously for the entire 1-week duration of PTH treatment in order to label all proliferating cells. […] Thus, it seems that PTH-induced osteoblasts and fibroblasts originate by different cellular pathways."}, "[2]": {"system": "rat model for parathyroid bone disease", "experiment": "Rat model for parathyroid bone disease: pulsatile vs continuous PTH, bone histomorphometry", "format": "in vivo", "protocol": "Induction of parathyroid bone disease. Three month-old female Sprague-Dawley rats (Harlan Sprague-Dawley, Inc., Indianapolis, Ind.) were randomly divided into 3 groups, with 5 rats per group. In group 1 (pulsatile or intermittent PTH), each rat received 80 μg/kg/day human PTH (1-34) (hPTH) in vehicle (150 mM NaCl, 1 mM HCl and 2% heat-inactivated rat serum) by subcutaneous (s.c.) injection once daily for 7 days. In group 2 (vehicle), an osmotic pump (Alza Corp., Mountainview, Calif.) that delivered vehicle alone at a rate of 1 μl/hr for 7 days was implanted in each rat. In group 3 (continuous PTH), an osmotic pump that delivered 40 μg/kg/day hPTH at a rate of 1 μl/hr for 7 days was implanted in each rat. On day 8, all rats were anesthetized with ketamine (50 mg/kg): xylazine HCl (5 mg/kg) and sacrificed by decapitation. Both tibiae were removed from each rat. Right tibiae were fixed by immersion in 70% ethanol then processed for bone histology to verify the appearance of peritrabecular fibrosis. Left tibiae were frozen in liquid N2 and stored at −80° C. until processed for RNA isolation.\nBone histomorphometry. Proximal metaphyses were dehydrated in a graded series of ethanol, then infiltrated and embedded in methymethacrylate (Fisher Scientific, Fair Lawn, N.J.). After embedding, 5 μm sections were cut using a microtome (Reichert-Jung Model 2065, Heidelberg, Germany), and the sections were mounted unstained. Dynamic histomorphometric cancellous bone measurements were made in the unstained sections using fluorescent microscopy to detect the injected tetracycline and calcein markers. After obtaining the cancellous bone measurements, consecutive sections were stained with toluidine blue for bone cell and peritrabecular fibrosis measurements using light microscopy. A standard sampling site of 2.8 mm was located in the secondary spongiosa of the metaphysis at 1.5 mm distal to the growth plate.\nAll histomorphometric measurements were made with an Osteomeasure image analysis system (OsteoMetrics, Atlanta, Ga.) coupled to a photomicroscope and personal computer. All parameters were calculated according to standardized nomenclature. See, for example, Parfitt et al., J. Bone Miner. Res., 2:595-610 (1987). Bone volume was defined as the percentage of tissue volume consisting of cancellous bone. Tetracycline and calcein labels were determined as the percentage of bone perimeter labeled with fluorochrome. Mineral apposition rate (MAR) was defined as the average width between tetracycline and calcein label divided by interlabel time of 6 days. Bone formation rate (BFR) was defined as the product of MAR and the calcein label perimeter, and was expressed per bone surface (BFR/BS), bone volume (BFR/BV), or tissue volume (BFR/TV). Osteoblast surface was defined as a palisade of large basophilic cuboidal cells directly lying on top of the osteoid, and was expressed as a percent of bone perimeter. Osteoclast surface was defined as the bone perimeter lined by multinucleated cells regardless of the presence of erosion. Fibrotic perimeter was defined as the bone perimeter lined by multilayers of fibroblasts.\nA rat model of hyperparathyroidism (HPT) was developed as described in Example 1, and compared to intermittent PTH treatment. PTH results in major changes in bone metabolism in less than 1 week and these short-term changes accurately predict the long-terms effects of the hormone. To induce an anabolic course of PTH action, human recombinant PTH was administered s.c. (80 μg/kg/d). […] In contrast, no increase in osteoclast number was noted.\nTo mimic HPT, hPTH was infused continuously at the same dose rate (80 μg/kg/d) using a s.c. implanted osmotic pump. […] In addition, bone formation in rats treated continuously or intermittently with PTH had similar increases in bone formation after 1 week. Cancellous osteopenia was not observed. […]"}, "[3]": {"conditions": "pulsatile PTH 80 μg/kg/day s.c. once daily 7 days, rats"}, "[4]": {"conditions": "pulsatile PTH 80 μg/kg/day s.c. once daily 7 days, rats, vs untreated control"}}}
{"substance": "human PTH (1-34)", "values": [{"measurement": "3H-thymidine labeling of PTH-induced osteoblasts", "setting": "[1]", "result": "unlabeled"}, {"measurement": "3H-thymidine labeling of most of the peritrabecular fibroblasts induced by PTH", "setting": "[1]", "result": "labeled"}, {"measurement": "osteoclast number", "setting": "[2]; PTH s.c. 80 μg/kg/d, rats", "result": "no increase"}, {"measurement": "Cancellous osteopenia", "setting": "[2]; PTH-treated rats, 1 week", "result": "not observed"}, {"measurement": "PTH pulse duration having the same effect as continuous PTH", "setting": "[2]; programmed implantable osmotic pump, same quantity of PTH, rats", "result": 6, "unit": "h"}, {"measurement": "Marrow fibrosis", "setting": "[2]; [3]", "result": "Not observed^a"}, {"measurement": "Osteoid surface", "setting": "[2]; [3]", "result": "Minimal^a"}, {"measurement": "Osteoblast perimeter", "setting": "[2]; [4]", "result": "↑^a"}, {"measurement": "mRNA levels for one matrix proteins", "setting": "[2]; [4]", "result": "↑^a"}]}
